Results on four molecules are retold here after paper PMC3454513 (Nature structural & molecular biology, 2012).

The test system of series [1] is p53. Kind of series: Immunoblot of p53 phosphorylated at Ser15, HCT 116 cells. It is filed as cell-based, human. The conditions noted are these: 10 μM doxorubicin or 100 μM etoposide for 4 h. (In general: A western blot detects proteins with antibodies after separation by electrophoresis.)
In series [2] the test system is PHF20 Tudor2 and Tudor1-2. It counts as binding, human. The conditions noted are these: peptide array (Supplementary Fig. 1).
Series [3] deals with the molecule itself. The experiment in a line: mass spectrometry.

Turning to `COc1cccc2c1C(=O)c1c(O)c3c(c(O)c1C2=O)C[C@@](O)(C(=O)CO)C[C@@H]3O[C@H]1C[C@H](N)[C@H](O)[C@H](C)O1` [doxorubicin], the “phosphorylation of p53 at Ser15” value in series [1] is “induced phosphorylation of p53 at Ser15”. As for “p53K370me2: Cy3-labeled 18-amino acid p53 peptide dimethylated at Lys370”, in series [2], the “interaction with PHF20 among the four known methylated forms of p53” value is “strongest interaction”. On the same count and under the same terms, the entry for “p53K382me2: Cy3-labeled 18-amino acid p53 peptide dimethylated at Lys382” is “strongest interaction”.

B1: PHF20 Tudor2 (amino acids 84–147), disulfide cross-linked homodimer (domain or fragment, human, UniProt Q9BVI0 84-147, looked up)
chain: SSEFQINEQVLACWSDCRFYPAKVTAVNKDGTYTVKFYDGVVQTVKHIHVKAFSKDQNIVGNAR
modifications: disulfide bonds between Cys96 and Cys100 of subunit A and Cys100 and Cys96 of subunit B
As usually defined, the stoichiometry N is the number of molecules, sites or subunits per partner or assembly. As for B1, the “stoichiometry N” value in series [3] stood at 2.
